Results on 34 compounds are retold here after patent US12023333B2, “Phenyl-sulfamoyl.benzoyc acids as ERAP1 modulators” (GREY WOLF THERAPEUTICS LIMITED, priority 2019, dated 2024).

A word on the IC50: it is the concentration that inhibits the measured activity by half.

T1 sequence (Q9NZ08 37-941): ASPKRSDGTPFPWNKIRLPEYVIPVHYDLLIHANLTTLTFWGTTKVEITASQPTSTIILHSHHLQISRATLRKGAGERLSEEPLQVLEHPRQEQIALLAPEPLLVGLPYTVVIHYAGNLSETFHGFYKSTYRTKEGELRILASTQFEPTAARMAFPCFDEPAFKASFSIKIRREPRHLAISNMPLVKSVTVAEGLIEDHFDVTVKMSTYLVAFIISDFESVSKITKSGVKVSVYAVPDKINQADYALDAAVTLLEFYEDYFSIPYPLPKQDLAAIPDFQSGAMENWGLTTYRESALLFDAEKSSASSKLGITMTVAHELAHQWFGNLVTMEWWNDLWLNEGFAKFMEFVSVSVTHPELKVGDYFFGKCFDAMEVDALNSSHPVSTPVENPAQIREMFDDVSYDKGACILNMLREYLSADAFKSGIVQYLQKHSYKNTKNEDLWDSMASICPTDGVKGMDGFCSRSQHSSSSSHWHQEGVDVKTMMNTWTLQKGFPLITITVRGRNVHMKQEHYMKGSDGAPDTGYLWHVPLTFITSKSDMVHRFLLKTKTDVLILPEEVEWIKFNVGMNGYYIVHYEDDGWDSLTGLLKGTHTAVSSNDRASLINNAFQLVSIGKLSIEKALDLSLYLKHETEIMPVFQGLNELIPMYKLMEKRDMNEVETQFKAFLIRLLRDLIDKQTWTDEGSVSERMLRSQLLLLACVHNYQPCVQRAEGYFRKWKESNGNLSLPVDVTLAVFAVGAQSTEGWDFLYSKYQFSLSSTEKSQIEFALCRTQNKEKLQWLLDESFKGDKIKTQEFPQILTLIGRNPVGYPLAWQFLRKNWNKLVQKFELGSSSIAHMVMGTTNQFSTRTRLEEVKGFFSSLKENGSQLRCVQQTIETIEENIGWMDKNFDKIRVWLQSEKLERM

This experiment concerns the target T1, Purified ERAP1(37-941)-10His (ERAP1) (Homo sapiens, UniProt Q9NZ08).
T1 construct: Purified ERAP1(37-941)-10His (ERAP1); 10His (C)
The experiment is described as follows: ERAP1 mediated hydrolysis of an amide substrate measured in a biochemical system (10-mer decapeptide substrate). The settings on record: 10-mer substrate, 23° C. for 1 h, excitation 279 nm and emission 355 nm; read-out: IC50 vs Decapeptide WRVYEKC(Dnp)ALK-acid (where Dnp is Dinitrophenyl maleimide) (10-mer). As to the method: Biological Assay 1: ERAP1 Mediated Hydrolysis of an Amide Substrate Measured in a Biochemical System
1× Assay buffer (AB): 25 mM Bis-tris propane, 0.05% w/v Hydroxypropylmethylcellulose pH 7.75 made with Optima grade water
Decapeptide WRVYEKC(Dnp)ALK-acid (where Dnp is Dinitrophenyl maleimide) (10-mer) L-Leucine 7-amido-4-methylcoumarin (L-AMC)
12.5 μL ERAP1 enzyme in 1×AB was combined with 250 nL test compound in DMSO. 12.5 μL of either 240 μM L-AMC in 1×AB or 100 μM 10-mer in 1×AB was added to the reaction and incubated at 23° C. for 1 h. For detection, plates were read at excitation 365 nm and emission 442 nm (L-AMC) or excitation 279 nm and emission 355 nm (10-mer). Compound IC50 was determined using a 4 parameter equation.
Regarding `COc1ccc(C(=O)O)cc1S(=O)(=O)Nc1cc(C(F)(F)F)ccc1-c1ccccc1` [Example 1, 4-methoxy-3-(N-(4-(trifluoromethyl)-[1,1′-biphenyl]-2-yl)sulfamoyl)benzoic acid], the IC50 is below 500 nM.

Consider `COc1ccc(C(=O)O)cc1S(=O)(=O)Nc1cc(C(F)(F)F)ccc1-c1cccnc1` [Example 2, 4-methoxy-3-(N-(2-(pyridin-3-yl)-5-(trifluoromethyl)phenyl)sulfamoyl)benzoic acid], for which the IC50 is below 500 nM.

Consider `COc1ccc(C(=O)O)cc1S(=O)(=O)Nc1cc(C(F)(F)F)ccc1-c1cccs1` [Example 3, 4-methoxy-3-(N-(2-(thiophen-2-yl)-5-(trifluoromethyl)phenyl)sulfamoyl)benzoic acid], for which the IC50 is below 500 nM.

As to `COc1ccc(C(=O)O)cc1S(=O)(=O)Nc1cc(C(F)(F)F)ccc1-c1cc(C)nn1C` [Example 4, 3-(N-(2-(1,3-dimethylpyrazol-5-yl)-5-(trifluoromethyl)phenyl)sulfamoyl)-4-methoxybenzoic acid], the IC50 was below 5000 nM.

`COc1ccc(C(=O)O)cc1S(=O)(=O)Nc1cc(C(F)(F)F)ccc1-c1ccnn1CC(C)C` [Example 5, 3-(N-(2-(1-isobutylpyrazol-5-yl)-5-(trifluoromethyl)phenyl)sulfamoyl)-4-methoxybenzoic acid]: the concentration for half-maximal inhibition (IC50) was below 5000 nM.

Consider `COc1ccc(C(=O)O)cc1S(=O)(=O)Nc1cc(C(F)(F)F)ccc1-c1cccc(C)c1` [Example 6, 4-methoxy-3-(N-(3′-methyl-4-(trifluoromethyl)-[1,1′-biphenyl]-2-yl)sulfamoyl)benzoic acid], for which the IC50 is below 500 nM.

With `COc1ccc(C(=O)O)cc1S(=O)(=O)Nc1cc(C(F)(F)F)ccc1-c1cccc(C#N)c1` [Example 7, 3-(N-(3′-cyano-4-(trifluoromethyl)-[1,1′-biphenyl]-2-yl)sulfamoyl)-4-methoxybenzoic acid], the IC50 is below 500 nM.

Consider `COc1ccc(C(=O)O)cc1S(=O)(=O)Nc1cc(C(F)(F)F)ccc1-c1ccccc1C` [Example 8, 4-methoxy-3-(N-(2′-methyl-4-(trifluoromethyl)-[1,1′-biphenyl]-2-yl)sulfamoyl)benzoic acid], for which the IC50 is below 500 nM.

With `COc1ccc(C(=O)O)cc1S(=O)(=O)Nc1cc(C(F)(F)F)ccc1-c1ccccc1F` [Example 9, 3-(N-(2′-fluoro-4-(trifluoromethyl)-[1,1′-biphenyl]-2-yl)sulfamoyl)-4-methoxybenzoic acid], the IC50 is below 500 nM.

Regarding `COc1ccc(C(=O)O)cc1S(=O)(=O)Nc1cc(C(F)(F)F)ccc1-c1ccccc1Cl` [Example 10, 3-(N-(2′-chloro-4-(trifluoromethyl)-[1,1′-biphenyl]-2-yl)sulfamoyl)-4-methoxybenzoic acid], the IC50 is below 5000 nM.

`COc1ccccc1-c1ccc(C(F)(F)F)cc1NS(=O)(=O)c1cc(C(=O)O)ccc1OC` [Example 11, 4-methoxy-3-(N-(2′-methoxy-4-(trifluoromethyl)-[1,1′-biphenyl]-2-yl)sulfamoyl)benzoic acid]: the IC50 was below 5000 nM.

With `COc1ccc(C(=O)O)cc1S(=O)(=O)Nc1cc(C(F)(F)F)ccc1-c1ccc(F)cc1` [Example 12, 3-(N-(4′-fluoro-4-(trifluoromethyl)-[1,1′-biphenyl]-2-yl)sulfamoyl)-4-methoxybenzoic acid], the IC50 was below 500 nM.

With `COc1ccc(C(=O)O)cc1S(=O)(=O)Nc1cc(C(F)(F)F)ccc1-c1ccccc1C#N` [Example 13, 3-(N-(2′-cyano-4-(trifluoromethyl)-[1,1′-biphenyl]-2-yl)sulfamoyl)-4-methoxybenzoic acid], the half-maximal inhibitory concentration (IC50) was below 5000 nM.

For `COc1ccc(C(=O)O)cc1S(=O)(=O)Nc1cc(C(F)(F)F)ccc1-c1ccncc1` [Example 14, 4-methoxy-3-(N-(2-(pyridin-4-yl)-5-(trifluoromethyl)phenyl)sulfamoyl)benzoic acid], the half-maximal inhibitory concentration (IC50) was above 5000 nM.

With `COc1ccc(C(=O)O)cc1S(=O)(=O)Nc1cc(C(F)(F)F)ccc1-c1cccc(F)c1` [Example 15, 3-(N-(3′-fluoro-4-(trifluoromethyl)-[1,1′-biphenyl]-2-yl)sulfamoyl)-4-methoxybenzoic acid], the IC50 was below 500 nM.

As to `COc1ccc(C(=O)O)cc1S(=O)(=O)Nc1cc(C(F)(F)F)ccc1-c1ccc(C#N)cc1` [Example 16, 3-(N-(4′-cyano-4-(trifluoromethyl)-[1,1′-biphenyl]-2-yl)sulfamoyl)-4-methoxybenzoic acid], the IC50 is below 5000 nM.

For `COc1cccc(-c2ccc(C(F)(F)F)cc2NS(=O)(=O)c2cc(C(=O)O)ccc2OC)c1` [Example 17, 4-methoxy-3-(N-(3′-methoxy-4-(trifluoromethyl)-[1,1′-biphenyl]-2-yl)sulfamoyl)benzoic acid], the IC50 is below 5000 nM.

On to `COc1ccc(C(=O)O)cc1S(=O)(=O)Nc1cc(C(F)(F)F)ccc1-c1ccoc1` [Example 18, 3-(N-(2-(furan-3-yl)-5-(trifluoromethyl)phenyl)sulfamoyl)-4-methoxybenzoic acid], for which the IC50 is below 500 nM.

In the case of `CCc1ccc(C(=O)O)cc1S(=O)(=O)Nc1cc(C(F)(F)F)ccc1-c1ccccc1` [Example 19, 4-ethyl-3-(N-(4-(trifluoromethyl)-[1,1′-biphenyl]-2-yl)sulfamoyl) benzoic acid], the IC50 is below 500 nM.

Take `COc1ccc(C(=O)O)cc1S(=O)(=O)Nc1cc(C(F)(F)F)ccc1-c1ccsc1` [Example 20, 4-methoxy-3-(N-(2-(thiophen-3-yl)-5-(trifluoromethyl)phenyl)sulfamoyl) benzoic acid]: the IC50 is below 500 nM.

For `CCc1ccc(C(=O)O)cc1S(=O)(=O)Nc1cc(C(F)(F)F)ccc1-c1cccc(C#N)c1` [Example 21, 3-(N-(3′-cyano-4-(trifluoromethyl)-[1,1′-biphenyl]-2-yl)sulfamoyl)-4-ethylbenzoic acid], the IC50 was below 500 nM.

For `CCc1ccc(C(=O)O)cc1S(=O)(=O)Nc1cc(C(F)(F)F)ccc1-c1cccs1` [Example 22, 4-ethyl-3-(N-(2-(thiophen-2-yl)-5-(trifluoromethyl)phenyl)sulfamoyl)benzoic acid], the half-maximal inhibitory concentration (IC50) is below 500 nM.

`COc1ccc(C(=O)O)cc1S(=O)(=O)Nc1cc(C(F)(F)F)ccc1-c1ccco1` [Example 23, 3-(N-(2-(furan-2-yl)-5-(trifluoromethyl)phenyl)sulfamoyl)-4-methoxybenzoic acid]: the IC50 is below 500 nM.

As for `CCc1ccc(C(=O)O)cc1S(=O)(=O)Nc1cc(C(F)(F)F)ccc1-c1cccc(F)c1` [Example 24, 4-ethyl-3-(N-(3′-fluoro-4-(trifluoromethyl)-[1,1′-biphenyl]-2-yl)sulfamoyl) benzoic acid], the IC50 was below 500 nM.

Regarding `COc1ccc(C(=O)O)cc1S(=O)(=O)Nc1cc(C(F)(F)F)ccc1-c1cnco1` [Example 25, 4-methoxy-3-(N-(2-(oxazol-5-yl)-5-(trifluoromethyl)phenyl)sulfamoyl) benzoic acid], the IC50 was below 5000 nM.

In the case of `COc1ccc(C(=O)O)cc1S(=O)(=O)Nc1cc(C(F)(F)F)ccc1-c1ccccn1` [Example 26, 4-methoxy-3-(N-(2-(pyridin-2-yl)-5-(trifluoromethyl)phenyl)sulfamoyl) benzoic acid], the IC50 is below 500 nM.

As to `CCc1ccc(C(=O)O)cc1S(=O)(=O)Nc1cc(C(F)(F)F)ccc1-c1cccnc1` [Example 27, 4-ethyl-3-(N-(2-(pyridin-3-yl)-5-(trifluoromethyl)phenyl)sulfamoyl)benzoic acid], the IC50 is below 500 nM.

Regarding `COc1ccc(C(=O)O)cc1S(=O)(=O)Nc1cc(C(F)(F)F)ccc1-n1cncn1` [Example 28, 3-(N-(2-(1,2,4-triazol-1-yl)-5-(trifluoromethyl)phenyl)sulfamoyl)-4-methoxybenzoic acid], the IC50 was above 5000 nM.

Consider `CCc1ccc(C(=O)O)cc1S(=O)(=O)Nc1cc(C(F)(F)F)ccc1-n1cncn1` [Example 29, 3-(N-(2-(1,2,4-triazol-1-yl)-5-(trifluoromethyl)phenyl)sulfamoyl)-4-ethylbenzoic acid], for which the IC50 was below 5000 nM.

For `COc1ccc(C(=O)O)cc1S(=O)(=O)Nc1cc(C(F)(F)F)ccc1-n1cccn1` [Example 30, 3-(N-(2-(pyrazol-1-yl)-5-(trifluoromethyl)phenyl)sulfamoyl)-4-methoxybenzoic acid], the IC50 is below 5000 nM.

Regarding `CCc1ccc(C(=O)O)cc1S(=O)(=O)Nc1cc(C(F)(F)F)ccc1-n1cccn1` [Example 31, 3-(N-(2-(pyrazol-1-yl)-5-(trifluoromethyl)phenyl)sulfamoyl)-4-ethylbenzoic acid], the IC50 was below 500 nM.

Consider `CCc1ccc(C(=O)O)cc1S(=O)(=O)Nc1cc(S(C)(=O)=O)ccc1-c1ccccc1` [Example 32, 4-ethyl-3-(N-(4-(methylsulfonyl)-[1,1′-biphenyl]-2-yl)sulfamoyl)benzoic acid], for which the IC50 was below 500 nM.

Take `CCc1ccc(C(=O)O)cc1S(=O)(=O)Nc1cc(S(C)(=O)=O)ccc1-c1cccc(F)c1` [Example 33, 4-ethyl-3-(N-(3′-fluoro-4-(methylsulfonyl)-[1,1-biphenyl]-2-yl)sulfamoyl)benzoic acid]: the IC50 is below 500 nM.

For `CCc1ccc(C(=O)O)cc1S(=O)(=O)Nc1cc(S(C)(=O)=O)ccc1-c1cccs1` [Example 34, 4-ethyl-3-(N-(5-(methylsulfonyl)-2-(thiophen-2-yl)phenyl)sulfamoyl) benzoic acid], the IC50 is below 500 nM.
